Measured values as given in article PMC6324581 (Peptide science (Hoboken, N.J.), 2018).
≈ marks a conversion by molar mass, not a printed value. Square brackets hold non-standard residues; d marks the D form. Ends that are not written are not given here. Peptide text beside a SMILES is read from it. Dap = NC[C@H](N)C(=O)O

Columns and labels:
E. coli D31 = assay type: cell-based; settings: Mueller Hinton broth, ~10^5 CFU/mL, 18 hours at 37°C, OD600, lowest concentration with no visible growth, average of 3 independent samples
[1] = system: P. aeruginosa (ATCC:10145); assay type: cell-based; settings: ATCC:10145, 18 h
[2] = system: K. pneumonia (ATCC: 700603); assay type: cell-based, K. pneumoniae; settings: 18 h
S. aureus (ATCC: 27660) = assay type: cell-based; settings: ATCC: 27660, 18 h

Molecule | MIC (E. coli D31) [µM] | MIC [1] [µM] | MIC [2] [µM] | MIC (S. aureus (ATCC: 27660)) [µM]
CC[C@H](C)[C@H](NC(=O)CNC(=O)[C@H](CN)NC(=O)[C@H](Cc1ccccc1)NC(=O)[C@H](CC(C)C)NC(=O)[C@H](CN)NC(=O)[C@H](CN)NC(=O)[C@H](C)NC(=O)[C@H](CN)NC(=O)[C@H](CN)NC(=O)[C@H](Cc1ccccc1)NC(=O)CNC(=O)[C@H](CN)NC(=O)[C@H](C)NC(=O)[C@H](Cc1c[nH]c2ccccc12)NC(=O)[C@@H](NC(=O)[C@H](CN)NC(=O)[C@@H](NC(=O)[C@H](CC(C)C)NC(=O)[C@H](CN)NC(=O)[C@@H](N)CN)[C@@H](C)CC)C(C)C)C(=O)NCC(=O)O [PBP-X] (H-[Dap][Dap]LI[Dap]VWA[Dap]GF[Dap][Dap]A[Dap][Dap]LF[Dap]GIG-OH) | 1.88 (≈ 4.02 µg/mL) | 3.75 (≈ 8.02 µg/mL) |  | 
KKAAKAWAKGAKKAKKLAKGAG [PBP-A] | >15 | >15 | >15 | 
KKLIKVFAKGFKKAKKLWKGIG [PBP-W18] |  | 1.88 | 1.88 | 0.94
KKLIKVFAKGWKKAKKLFKGIG [PBP-W11] |  | 1.88 | 1.88 | 0.47
KKLIKVWAKGFKKAKKLFKGIG [PBP] | 0.94 | 1.88 | 1.88 | 0.94
